According to PMC8640094, “Diaportones A–C: Three New Metabolites From Endophytic Fungus Diaporthe foeniculina BZM-15” (Frontiers in Chemistry, 2021):
“And” between values parts separate entries of the source, which are not always exact repeats. Equal entries are not always repeated.

What was measured:
MCF-7 (breast cancer) = assay: MTT cytotoxicity assay, MCF-7 cells; type: cell-based, human; settings: for cell inhibition: listed as Comp.5
Procedure: (§1) The cytotoxicity of all compounds against three human tumor cell lines, SF-268 (CNS cancer), MCF-7 (breast cancer), and HepG2 (hepatoma cancer), and normal cell line LX-2 was tested using the MTT assay. […] All cells were seeded into 96-well plates at 5 × 10^4 cells/ml and incubated at 37°C under a 5% CO2 atmosphere for 24 h. Then, the tested compounds were added. After 72 h, MTT solution was added into each well, which was further incubated. The cell-free supernatant was removed and formazan crystals were subsequently dissolved in DMSO. Optical density (OD) was recorded at 490 nm on a microplate reader to calculate the IC50 values.

HepG2 (hepatoma cancer) = assay: MTT cytotoxicity assay, HepG2 cells; type: cell-based, human; settings: for cell inhibition: listed as Comp.5
Procedure: (§2) The cytotoxicity of all compounds against three human tumor cell lines, SF-268 (CNS cancer), MCF-7 (breast cancer), and HepG2 (hepatoma cancer), and normal cell line LX-2 was tested using the MTT assay. Adriamycin was used as a positive control. All cells were seeded into 96-well plates at 5 × 10^4 cells/ml and incubated at 37°C under a 5% CO2 atmosphere for 24 h. Then, the tested compounds were added. After 72 h, MTT solution was added into each well, which was further incubated. The cell-free supernatant was removed and formazan crystals were subsequently dissolved in DMSO. Optical density (OD) was recorded at 490 nm on a microplate reader to calculate the IC50 values.

SF-268 (CNS cancer) = assay: MTT cytotoxicity assay, SF-268 cells; type: cell-based, human; settings: for cell inhibition: SF268 cells, listed as Comp.5
Procedure: as §2

normal cell line LX-2 = assay: MTT cytotoxicity assay, normal cell line LX-2; type: cell-based; settings: for cell inhibition: listed as Comp.5
Procedure: as §1

[1] = LX-2, c 1.00 μM, three replicates
[2] = LX-2, c 2.00 μM, three replicates
[3] = LX-2, c 4.00 μM, three replicates
[4] = LX-2, c 8.00 μM, three replicates
[5] = LX-2, c 16.00 μM, three replicates
[6] = LX-2, c 32.00 μM, three replicates
[7] = LX-2, c 64.00 μM, three replicates
[8] = LX-2, c 128.00 μM, three replicates

Structure (SMILES): CC(C)C12CC1C(C)(O)CC2=O (centres unmarked) [compound 5, diaportone C]
- inhibition at 1 µM (MCF-7 (breast cancer); Homo sapiens, MCF7, MCF-7, c 1.00 μM, three replicates, read-out: cell inhibition): 8.13%
- inhibition at 2 µM (MCF-7 (breast cancer); Homo sapiens, MCF7, MCF-7, c 2.00 μM, three replicates, read-out: cell inhibition): 15.1%
- inhibition at 4 µM (MCF-7 (breast cancer); Homo sapiens, MCF7, MCF-7, c 4.00 μM, three replicates, read-out: cell inhibition): 21.1%
- inhibition at 8 µM (MCF-7 (breast cancer); Homo sapiens, MCF7, MCF-7, c 8.00 μM, three replicates, read-out: cell inhibition): 28.2%
- inhibition at 16 µM (MCF-7 (breast cancer); Homo sapiens, MCF7, MCF-7, c 16.00 μM, three replicates, read-out: cell inhibition): 33.4%
- inhibition at 32 µM (MCF-7 (breast cancer); Homo sapiens, MCF7, MCF-7, c 32.00 μM, three replicates, read-out: cell inhibition): 41.7%
- inhibition at 64 µM (MCF-7 (breast cancer); Homo sapiens, MCF7, MCF-7, c 64.00 μM, three replicates, read-out: cell inhibition): 54.1%
- inhibition at 128 µM (MCF-7 (breast cancer); Homo sapiens, MCF7, MCF-7, c 128.00 μM, three replicates, read-out: cell inhibition): 70.1%
- IC50 (MCF-7 (breast cancer); Homo sapiens, MCF7, MTT, 72 h, mean ± SD (n = 3)): > 40 µM
- cell inhibition (MCF-7 (breast cancer); MCF-7, c 1.00 μM, three replicates): 8.16% and 9.09%
- cell inhibition (MCF-7 (breast cancer); MCF-7, c 2.00 μM, three replicates): 16.13% and 15.25%
- cell inhibition (MCF-7 (breast cancer); MCF-7, c 4.00 μM, three replicates): 22.04% and 21.31%
- cell inhibition (MCF-7 (breast cancer); MCF-7, c 8.00 μM, three replicates): 28.45% and 29.1%
- cell inhibition (MCF-7 (breast cancer); MCF-7, c 16.00 μM, three replicates): 33.57% and 33.06%
- cell inhibition (MCF-7 (breast cancer); MCF-7, c 32.00 μM, three replicates): 42.15% and 41.31%
- cell inhibition (MCF-7 (breast cancer); MCF-7, c 64.00 μM, three replicates): 53.35% and 53.16%
- cell inhibition (MCF-7 (breast cancer); MCF-7, c 128.00 μM, three replicates): 71.36% and 73.18%
- cell inhibition (HepG2 (hepatoma cancer); HepG2, c 1.00 μM, three replicates): 3.46% and 5.11%
- cell inhibition (HepG2 (hepatoma cancer); HepG2, c 2.00 μM, three replicates): 7.29% and 7.31%
- cell inhibition (HepG2 (hepatoma cancer); HepG2, c 4.00 μM, three replicates): 9.34% and 11.19%
- cell inhibition (HepG2 (hepatoma cancer); HepG2, c 8.00 μM, three replicates): 16.9% and 15.77%
- cell inhibition (HepG2 (hepatoma cancer); HepG2, c 16.00 μM, three replicates): 25.3% and 27.11%
- cell inhibition (HepG2 (hepatoma cancer); HepG2, c 32.00 μM, three replicates): 44.75% and 45.2%
- cell inhibition (HepG2 (hepatoma cancer); HepG2, c 64.00 μM, three replicates): 77.47% and 75.51%
- cell inhibition (HepG2 (hepatoma cancer); HepG2, c 128.00 μM, three replicates): 83.13% and 82.98%
- inhibition at 1 µM (HepG2 (hepatoma cancer); Homo sapiens, HepG2, HepG2, c 1.00 μM, three replicates, read-out: cell inhibition): 3.33%
- inhibition at 2 µM (HepG2 (hepatoma cancer); Homo sapiens, HepG2, HepG2, c 2.00 μM, three replicates, read-out: cell inhibition): 7.36%
- inhibition at 4 µM (HepG2 (hepatoma cancer); Homo sapiens, HepG2, HepG2, c 4.00 μM, three replicates, read-out: cell inhibition): 9.89%
- inhibition at 8 µM (HepG2 (hepatoma cancer); Homo sapiens, HepG2, HepG2, c 8.00 μM, three replicates, read-out: cell inhibition): 16.4%
- inhibition at 16 µM (HepG2 (hepatoma cancer); Homo sapiens, HepG2, HepG2, c 16.00 μM, three replicates, read-out: cell inhibition): 27.6%
- inhibition at 32 µM (HepG2 (hepatoma cancer); Homo sapiens, HepG2, HepG2, c 32.00 μM, three replicates, read-out: cell inhibition): 46.2%
- inhibition at 64 µM (HepG2 (hepatoma cancer); Homo sapiens, HepG2, HepG2, c 64.00 μM, three replicates, read-out: cell inhibition): 77.2%
- inhibition at 128 µM (HepG2 (hepatoma cancer); Homo sapiens, HepG2, HepG2, c 128.00 μM, three replicates, read-out: cell inhibition): 81.1%
- IC50 (HepG2 (hepatoma cancer); Homo sapiens, HepG2, MTT, 72 h, mean ± SD (n = 3)): > 40 µM
- inhibition at 1 µM (SF-268 (CNS cancer); Homo sapiens, SF-268, SF268 cells, c 1.00 μM, triplicate values, read-out: cell inhibition): 6.47%
- inhibition at 2 µM (SF-268 (CNS cancer); Homo sapiens, SF-268, SF268 cells, c 2.00 μM, triplicate values, read-out: cell inhibition): 15.7%
- inhibition at 4 µM (SF-268 (CNS cancer); Homo sapiens, SF-268, SF268 cells, c 4.00 μM, triplicate values, read-out: cell inhibition): 22.9%
- inhibition at 8 µM (SF-268 (CNS cancer); Homo sapiens, SF-268, SF268 cells, c 8.00 μM, triplicate values, read-out: cell inhibition): 22.1%
- inhibition at 16 µM (SF-268 (CNS cancer); Homo sapiens, SF-268, SF268 cells, c 16.00 μM, triplicate values, read-out: cell inhibition): 27.1%
- inhibition at 32 µM (SF-268 (CNS cancer); Homo sapiens, SF-268, SF268 cells, c 32.00 μM, triplicate values, read-out: cell inhibition): 31.9%
- inhibition at 64 µM (SF-268 (CNS cancer); Homo sapiens, SF-268, SF268 cells, c 64.00 μM, triplicate values, read-out: cell inhibition): 67.2%
- inhibition at 128 µM (SF-268 (CNS cancer); Homo sapiens, SF-268, SF268 cells, c 128.00 μM, triplicate values, read-out: cell inhibition): 72.8%
- IC50 (SF-268 (CNS cancer); Homo sapiens, SF-268, MTT, 72 h, mean ± SD (n = 3), read-out: IC50 SF268): > 40 µM
- cell inhibition (SF-268 (CNS cancer); c 1.00 μM, triplicate values): 6.8% and 6.81%
- cell inhibition (SF-268 (CNS cancer); c 2.00 μM, triplicate values): 13.52% and 13.37%
- cell inhibition (SF-268 (CNS cancer); c 4.00 μM, triplicate values): 23.4% and 24.41%
- cell inhibition (SF-268 (CNS cancer); c 8.00 μM, triplicate values): 23.23% and 26.17%
- cell inhibition (SF-268 (CNS cancer); c 16.00 μM, triplicate values): 25.97% and 27.9%
- cell inhibition (SF-268 (CNS cancer); c 32.00 μM, triplicate values): 33.15% and 30.82%
- cell inhibition (SF-268 (CNS cancer); c 64.00 μM, triplicate values): 67.13% and 67.17%
- cell inhibition (SF-268 (CNS cancer); c 128.00 μM, triplicate values): 70.54% and 72.29%
- inhibition at 1 µM (normal cell line LX-2; [1]): 11.1%
- cell inhibition (normal cell line LX-2; [1]): 11.45% and 12.45%
- inhibition at 2 µM (normal cell line LX-2; [2]): 13.5%
- cell inhibition (normal cell line LX-2; [2]): 13.52% and 12.56%
- inhibition at 4 µM (normal cell line LX-2; [3]): 23.6%
- cell inhibition (normal cell line LX-2; [3]): 24.13% and 24.41%
- inhibition at 8 µM (normal cell line LX-2; [4]): 30.1%
- cell inhibition (normal cell line LX-2; [4]): 32.44% and 30.6%
- inhibition at 16 µM (normal cell line LX-2; [5]): 31.7%
- cell inhibition (normal cell line LX-2; [5]): 33.08% and 32.3%
- inhibition at 32 µM (normal cell line LX-2; [6]): 46.6%
- cell inhibition (normal cell line LX-2; [6]): 43.56% and 46.07%
- inhibition at 64 µM (normal cell line LX-2; [7]): 70.3%
- cell inhibition (normal cell line LX-2; [7]): 71.68% and 70.2%
- inhibition at 128 µM (normal cell line LX-2; [8]): 89.2%
- cell inhibition (normal cell line LX-2; [8]): 89.22% and 90.45%
- IC50 (normal cell line LX-2; MTT, 72 h, mean ± SD (n = 3)): > 40 µM
